According to paper PMC6222558, “Synthesis and Evolution of Berberine Derivatives as a New Class of Antiviral Agents against Enterovirus 71 through the MEK/ERK Pathway and Autophagy” (Molecules : A Journal of Synthetic Chemistry and Natural …, 2018):
Counter-ions that a name gives are not always drawn. Each block holds one molecule with its values, some of them ahead of it.

Experiments:
Vero cells = experiment: Cytotoxicity assay (CCK) in Vero cells; assay type: cell-based, African green monkey; settings: Vero cells; calculated on the organic part; n = 3
Protocol: (§1) Vero cells were purchased from the American Type Culture Collection (ATCC, […], MD, USA), and were cultured in Minimum Essential Medium (MEM) supplemented with 10% fetal bovine serum (FBS) (GIBCO, Grand Island, NY, USA) and antibiotics (100 U/mL penicillin and […] streptomycin) at 37 °C in a 5% CO2 incubator. EV71 strain SHZH98 isolated from the throat swab sample of an HFMD case occurring in 1998 in China was kindly provided by Dr. Qi Jin (Institute of Pathogen Biology, Chinese Academy of Medical Science and Peking Union Medical School, Beijing, China), and JS-52 strain was a kind gift from Dr. Xiangzhong Ye (Beijing Wantai Biological Pharmacy Enterprise Co., Ltd., Beijing, China). The EV71 BrCr and H strains were purchased from the ATCC. All of EV71 strains were passaged in Vero cells.
Cytotoxicity of all target compounds in Vero cells was analyzed by CCK (TransGen Biotech, Beijing, China) assay. In brief, cells in exponential phase (3 × 10^4 cells/well) were seeded into 96-well culture plates and incubated overnight. Then, the medium was removed and different concentrations of all target compounds were applied in duple. After 48 h incubation, the cytotoxicity of all target compounds was determined by CCK assay. The signals were read at 450 nm on Enspire (Perkin Elmer, Waltham, MA, USA). The TC50 was defined as the concentration that inhibits 50% cellular growth in comparison with the controls. It is calculated by the Reed and Muench method.

[1] = test system: EV71 H strain (VR-1432, genotype C2); experiment: CPE inhibition assay for anti-EV71, H strain; assay type: cell-based, enterovirus 71 (EV71); settings: Enterovirus A, EV71; Vero cells; CPE; calculated on the organic part; n = 3; read-out: H Strain IC50
Protocol: (§2) Thus, all newly synthesized BBR analogues were screened for their anti-EV71 potencies in African green monkey kidney (Vero) cells taking BBR as the positive control. EV71 strains used in the present study include different genotype strains, such as H strain (VR-1432, genotype C2), BrCr strain (VR-1775, genotype A), and JS-52 and SHZH98 (genotype C4). The potency against EV71 strains above mentioned of each tested compound was evaluated by the combination of its IC50 and selectivity index (SI) value as the important therapeutic indication.
as §1
(§3) The anti-EV71 activities of all tested compounds were detected by the virus-induced CPE assay. Briefly, cells (3 × 10^4 cells/well) were plated into 96-well culture plates and incubated for 16 h. Then, remove the medium and infected cells with EV71 of 100 × TCID50 (50% tissue culture infective doses) in serum-free medium for 1 h at 37 °C. After that, the unbound viruses were removed and various concentrations of tested compounds were supplemented for incubation of another 72 h. […] TC50 defined as the concentration that leads to the 50% of CPE which determined by the same method in 72 h. In addition, the cells were stained the cells were colored with 0.5% crystal violet in 20% ethanol for 15 min at room temperature and the cells were imaged after rinsed with PBS.

[2] = test system: EV71 JS-52 strain (genotype C4); experiment: CPE inhibition assay for anti-EV71, JS-52 strain; assay type: cell-based, enterovirus 71 (EV71); settings: Enterovirus A, EV71; Vero cells; CPE; calculated on the organic part; n = 3; read-out: JS-52 Strain IC50
Protocol: as §2, §1, §3

[3] = test system: EV71 SHZH98 strain (genotype C4); experiment: CPE inhibition assay for anti-EV71, SHZH98 strain; assay type: cell-based, enterovirus 71 (EV71); settings: Enterovirus A, EV71; Vero cells; CPE; calculated on the organic part; n = 3; read-out: SHZH98 Strain IC50
Protocol: as §2, §1, §3

[4] = test system: EV71 BrCr strain (VR-1775, genotype A); experiment: CPE inhibition assay for anti-EV71, BrCr strain; assay type: cell-based, enterovirus 71 (EV71); settings: Enterovirus A, EV71; Vero cells; CPE; calculated on the organic part; n = 3; read-out: BrCr Strain IC50
Protocol: as §2, §1, §3

[5] = test system: four different genotype enterovirus 71 (EV71) strains; experiment: CPE assay, summary over the four EV71 strains; assay type: cell-based; settings: Enterovirus A, EV71, read-out: IC50 (Figure 1)
Protocol: as §2, §3

[6] = test system: MEK/ERK signaling pathway; set-up: method as in PMID 28081706; settings: cited from earlier work

melting point: 218 to 220 °C
SMILES: COc1cccc(C(=O)COc2cc3c(cc2OC)-c2cc4ccc(OC)c(OC)c4c[n+]2CC3)c1 (as salt: chloride) [5e, 2,9,10-Trimethoxy-3-m-methoxyphenylformylmethylenoxy protoberberine chloride]

melting point: 213 to 215 °C
SMILES: COc1cc2c(cc1OCC(=O)c1ccc(C(F)(F)F)cc1)CC[n+]1cc3c(OC)c(OC)ccc3cc1-2 (as salt: chloride) [5f, 2,9,10-Trimethoxy-3-p-trifloromethylphenylformylmethylenoxy protober berine chloride]

melting point: 140 to 142 °C
SMILES: COc1cc2c(cc1OC(=O)OCc1ccccc1)CC[n+]1cc3c(OC)c(OC)ccc3cc1-2 (as salt: chloride) [5g, 2,9,10-Trimethoxy-3-benzyloxyformyloxy protoberberine chloride]

SMILES: COc1ccc2cc3[n+](cc2c1OC)CCc1cc2c(cc1-3)OCO2 [BBR, berberine]
TC50 (median toxic concentration) (Vero cells): 147 µM | IC50 [1]: 21.2 µM | IC50 [2]: 14 µM | IC50 [3]: 28.2 µM | IC50 [4]: 9.45 µM | IC50 [5]: 8.55 to 25.5 µM | phosphorylation of MEK/ERK induced by EV71 infection [6]: could inhibit the phosphorylation of MEK/ERK
